Values of other authors, collected in patent US20200138845A1, “Combination Drug Therapy” (ViiV Healthcare Company, priority 2017, published 2020).

System: HIV-1 strains
Settings: antiviral activity against a broad range of HIV-1 strains

C[C@H]1CO[C@@H]2Cn3cc(C(=O)NCc4ccc(F)cc4F)c(=O)c(O)c3C(=O)N12 [Cabotegravir, cabotegravir]
potency: subnanomolar
